Experimental data published in patent US20210255193A1, “LYSINE REACTIVE PROBES AND USES THEREOF” (The Scripps Research Institute, priority 2017, published 2021).
One block for each compound: values may come before it.

Legend:
Assay in all cases: competitive isoTOP-ABPP
Assay type in all cases: binding
[1] = biological target: T1, NUDT2 Bis(5-nucleosyl)-tetraphosphatase (Homo sapiens, UniProt P50583); design: key to isoTOP-ABPP reactivity ratio at lysine P50583_K89: R = MS1 peak area ratio, DMSO (heavy) / compound-treated (light); conditions: for isoTOP-ABPP ratio (R) at liganded lysine P50583_K89 / R value (DMSO/fragment) for probe 1 labeling / isoTOP-ABPP reactivity ratio at lysine P50583_K89: 50 uM, in vitro; for isoTOP-ABPP ratio (R) at liganded lysine P50583_K89: sol, 231; for R value (DMSO/fragment) for probe 1 labeling: P50583_K89; for R value (DMSO/fragment) for probe 1 labeling / isoTOP-ABPP reactivity ratio at lysine P50583_K89: 231 sol; for isoTOP-ABPP ratio, lysine P50583_K89: possible other lysine P50583_K87
T1 construct: isoTOP-ABPP experiments performed in cell lysates (in vitro); endogenous in cells
Procedure: (§1) In vitro covalent fragment treatment for isoTOP-ABPP. All compounds were made up as solutions in DMSO (100×) and were used at a final concentration of 50 μM for activated esters and 100 μM for guanidinylating agents. For each profiling sample, 0.5 ml of lysate was treated with 5 μl of the 100× compound stock solution or 5 μl of DMSO. Samples were treated with activated esters for
(§2) STP-alkyne labeling and click chemistry. For concentration-dependent reactivity measurements by isoTOP-ABPP, 0.5 ml proteome aliquots were treated at ambient temperature with 1 mM STP-alkyne 1 (5 μl of 100 mM stock in DMSO) and 0.1 mM STP alkyne 1 (5 μl of 10 mM stock in DMSO), respectively. For competitive isoTOP-ABPP, after in vitro fragment treatment (detailed above), the samples were labeled for 1 h at ambient temperature with 0.1 mM STP-alkyne 1 (5 μl of 10 mM stock in DMSO). Samples were conjugated by copper-mediated azide-alkyne cycloaddition (CuAAC) to either the light (1 mM STP-alkyne or fragment treated) or heavy (0.1 mM STP-alkyne or DMSO treated) TEV tags (10 μl of 5 mM stocks in DMSO, final concentration=100 μM) using tris(2-carboxyethyl)phosphine hydrochloride
(§3) R value calculation and processing. The ratios of light and heavy MS1 peaks for each unique peptide were quantified with a CIMAGE software using default parameters (3 MS1 acquisitions per peak and signal to noise threshold set to 2.5). For reactivity measurements by isoTOP-ABPP, the R value was calculated from the ratio of MS1 peak areas, comparing the 1 mM STP alkyne sample (light TEV tag) with the 0.1 mM STP alkyne sample (heavy TEV tag). For competitive isoTOP-ABPP, the R value was calculated from the ratio of MS1 peak areas, comparing the DMSO treated sample (heavy TEV tag) with the compound treated sample (light TEV tag). […] Ratios for unique peptide entries are calculated for each experiment; overlapping peptides with the same modified lysine (for example, different charge states, MudPIT chromatographic steps or tryptic termini) are grouped together and the median ratio is reported as the final ratio (R). The peptide ratios reported by CIMAGE were further filtered to ensure the removal or correction of low-quality ratios in each individual data set. The quality filters applied were the following: removal of half tryptic peptides; for ratios with high standard deviations from the median (90% of the median or above) the lowest ratio was taken instead of the median; removal of peptides with R=20 and only a single MS2 event triggered during the elution of the parent ion; manual annotation of all the peptides with ratios of 20, removing any peptides with low quality elution profiles that remained after the previous curation steps (only done for competitive isoTOP-ABPP).
(§4) Cross-data processing for fragment screening. For compound treated samples, biological replicates of the same condition were averaged, if the standard deviation was below 60% of the mean; otherwise, for lysines with at least one R value <4 for a particular compound, the lowest value of the ratio set was taken. For lysines, where all R values for a particular compound were ≥4, the average was reported. For peptides containing several possible modified lysines, the lysine with the highest number of quantification events was used for analysis and the remaining, redundant peptides were reported as alternative modification sites. Peptides included in the aggregate dataset (those used for further bioinformatics and statistical analyses) were required to have been quantified in 2 experiments for competitive isoTOP-ABPP. Lysines were categorized as liganded, if they had at least one ratio R≥4 (hit fragments). For liganded lysines with R=20 for all liganding events, lysines were required to have been quantified with R=20 in two separate experiments and were further required to have been quantified with R<20 in one additional experiment.

[2] = biological target: T2, TPMT Thiopurine S-methyltransferase (Homo sapiens, UniProt P51580); design: key to isoTOP-ABPP reactivity ratio at lysine P51580_K32: R = MS1 peak area ratio, DMSO (heavy) / compound-treated (light); conditions: for isoTOP-ABPP ratio (R) at liganded lysine P51580_K32 / R value (DMSO/fragment) for probe 1 labeling / isoTOP-ABPP reactivity ratio at lysine P51580_K32: 50 uM, in vitro; for isoTOP-ABPP ratio (R) at liganded lysine P51580_K32: sol, 231; for R value (DMSO/fragment) for probe 1 labeling: P51580_K32; for R value (DMSO/fragment) for probe 1 labeling / isoTOP-ABPP reactivity ratio at lysine P51580_K32: 231 sol; for isoTOP-ABPP ratio, lysine P51580_K32: 50 uM_231_sol_in vitro
T2 construct: isoTOP-ABPP experiments performed in cell lysates (in vitro); endogenous in cells; host or cells: soluble proteome of human cancer cell lines (MDA-MB-231; Ramos and Jurkat also prepared)
T2 sequence (P51580 1-245): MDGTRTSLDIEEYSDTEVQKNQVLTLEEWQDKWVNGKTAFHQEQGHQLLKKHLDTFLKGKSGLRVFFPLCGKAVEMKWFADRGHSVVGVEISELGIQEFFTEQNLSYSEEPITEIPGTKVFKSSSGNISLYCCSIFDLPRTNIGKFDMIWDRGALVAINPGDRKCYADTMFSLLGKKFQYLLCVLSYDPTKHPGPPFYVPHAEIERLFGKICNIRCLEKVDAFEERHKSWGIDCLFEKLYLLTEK
Procedure: as §1, §2, §3, §4

[3] = biological target: T3, ACBD3 Golgi resident protein GCP60 (Homo sapiens, UniProt Q9H3P7); design: key to isoTOP-ABPP reactivity ratio at lysine Q9H3P7_K117: R = MS1 peak area ratio, DMSO (heavy) / compound-treated (light); conditions: for isoTOP-ABPP ratio (R) at liganded lysine Q9H3P7_K117 / R value (DMSO/fragment) for probe 1 labeling / isoTOP-ABPP reactivity ratio at lysine Q9H3P7_K117: 50 uM, in vitro; for isoTOP-ABPP ratio (R) at liganded lysine Q9H3P7_K117: sol, 231; for R value (DMSO/fragment) for probe 1 labeling: Q9H3P7_K117; for R value (DMSO/fragment) for probe 1 labeling / isoTOP-ABPP reactivity ratio at lysine Q9H3P7_K117: 231 sol
T3 construct: isoTOP-ABPP experiments performed in cell lysates (in vitro); endogenous in cells; host or cells: soluble proteome of human cancer cell lines (MDA-MB-231; Ramos and Jurkat also prepared)
T3 sequence (Q9H3P7 1-528): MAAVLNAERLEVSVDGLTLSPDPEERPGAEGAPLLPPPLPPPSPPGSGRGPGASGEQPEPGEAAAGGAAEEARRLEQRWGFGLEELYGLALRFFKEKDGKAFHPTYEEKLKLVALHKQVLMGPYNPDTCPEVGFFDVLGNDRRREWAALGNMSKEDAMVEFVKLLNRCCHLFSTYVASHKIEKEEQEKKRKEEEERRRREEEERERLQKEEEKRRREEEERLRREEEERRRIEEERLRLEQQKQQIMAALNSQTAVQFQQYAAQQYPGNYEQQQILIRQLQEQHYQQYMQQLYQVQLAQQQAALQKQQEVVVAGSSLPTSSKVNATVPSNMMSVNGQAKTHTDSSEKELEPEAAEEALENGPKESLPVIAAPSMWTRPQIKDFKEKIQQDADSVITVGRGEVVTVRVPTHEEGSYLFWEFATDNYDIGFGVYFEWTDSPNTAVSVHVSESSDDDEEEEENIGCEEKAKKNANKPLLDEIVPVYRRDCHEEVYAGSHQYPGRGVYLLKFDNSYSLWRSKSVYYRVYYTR
Procedure: as §1, §2, §3, §4

T1 sequence (P50583 whole entry, the tested form may be a part): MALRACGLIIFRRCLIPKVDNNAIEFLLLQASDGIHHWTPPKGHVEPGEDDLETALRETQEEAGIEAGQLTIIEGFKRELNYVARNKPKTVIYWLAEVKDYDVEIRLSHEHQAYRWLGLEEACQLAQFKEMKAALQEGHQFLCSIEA

SMILES: CC(C)(C)OC(=O)NCCCC(=O)Oc1ccc([N+](=O)[O-])cc1[N+](=O)[O-] [fragment 41, 2,4-Dinitrophenyl 4-((tert-butoxycarbonyl)amino)butanoate]
- isoTOP-ABPP ratio (R) at liganded lysine P50583_K89 [1]: 1.0
- isoTOP-ABPP ratio (R) at liganded lysine P51580_K32 [2]: 1.5
- isoTOP-ABPP ratio (R) at liganded lysine Q9H3P7_K117 [3]: 1.2

- R value (DMSO/fragment) for probe 1 labeling [1]: 0.9
- R value (DMSO/fragment) for probe 1 labeling [2]: 1.3
- R value (DMSO/fragment) for probe 1 labeling [3]: 1.2
SMILES: Cn1cc(CC(=O)Oc2c(F)c(F)c(F)c(F)c2F)c2ccccc21 [fragment 22, Pentafluorophenyl 2-(1-methyl-1H-indol-3-yl)acetate]

SMILES: O=C(Oc1ccc([N+](=O)[O-])cc1[N+](=O)[O-])c1ccc(-c2ccccc2)cc1 [fragment 37, 2,4-Dinitrophenyl [1,1′-biphenyl]-4-carboxylate]
- isoTOP-ABPP ratio (R) at liganded lysine P50583_K89 [1]: 1.4
- isoTOP-ABPP ratio (R) at liganded lysine P51580_K32 [2]: 1.5
- isoTOP-ABPP ratio (R) at liganded lysine Q9H3P7_K117 [3]: 0.9

SMILES: COc1cc(CCC(=O)Oc2ccc([N+](=O)[O-])cc2[N+](=O)[O-])cc(OC)c1OC [fragment 33, 2,4-Dinitrophenyl 3-(3,4,5-trimethoxyphenyl)propanoate]
- isoTOP-ABPP reactivity ratio at lysine P50583_K89 [1]: 1.9
- isoTOP-ABPP reactivity ratio at lysine P51580_K32 [2]: 3.7
- isoTOP-ABPP reactivity ratio at lysine Q9H3P7_K117 [3]: 1.1

- R value (DMSO/fragment) for probe 1 labeling [1]: 0.9
- R value (DMSO/fragment) for probe 1 labeling [2]: 0.9
- R value (DMSO/fragment) for probe 1 labeling [3]: 1.2
SMILES: O=C(Oc1c(F)c(F)c(F)c(F)c1F)C(c1ccccc1)c1ccccc1 [fragment 20, Pentafluorophenyl 2,2-diphenylacetate]

SMILES: O=C(Oc1ccc([N+](=O)[O-])cc1[N+](=O)[O-])c1ccc2ccccc2n1 [fragment 35, 2,4-Dinitrophenyl quinoline-2-carboxylate]
- isoTOP-ABPP ratio (R) at liganded lysine P50583_K89 [1]: 1.6
- isoTOP-ABPP ratio (R) at liganded lysine Q9H3P7_K117 [3]: 1.3

SMILES: O=C(CCc1ccc2c(c1)OCO2)Oc1ccc([N+](=O)[O-])cc1[N+](=O)[O-] [fragment 45, 2,4-Dinitrophenyl 3-(benzo[d][1,3]dioxol-5-yl)propanoate]
- isoTOP-ABPP ratio, lysine P50583_K89 ([1]; 50 uM_231_sol_in vitro): 1.7
- isoTOP-ABPP ratio, lysine P51580_K32 [2]: 2.3
- isoTOP-ABPP ratio, lysine Q9H3P7_K117 ([3]; 50 uM_231_sol_in vitro): 1.1

- R value (DMSO/fragment) for probe 1 labeling [1]: 1.0
- R value (DMSO/fragment) for probe 1 labeling [2]: 6.4
- R value (DMSO/fragment) for probe 1 labeling [3]: 1.2
SMILES: COc1cc(CCC(=O)Oc2c(F)c(F)c(F)c(F)c2F)cc(OC)c1OC [fragment 23, Pentafluorophenyl 3-(3,4,5-trimethoxyphenyl)propanoate]

SMILES: O=C(Oc1ccc([N+](=O)[O-])cc1[N+](=O)[O-])c1ccccc1Nc1cccc(C(F)(F)F)c1 [fragment 40, 2,4-Dinitrophenyl 2-((3-(trifluoromethyl)phenyl)amino)benzoate]
- isoTOP-ABPP ratio (R) at liganded lysine P50583_K89 [1]: 0.9
- isoTOP-ABPP ratio (R) at liganded lysine P51580_K32 [2]: 1.1
- isoTOP-ABPP ratio (R) at liganded lysine Q9H3P7_K117 [3]: 0.9

SMILES: O=C(ON1C(=O)CCC1=O)c1cc(C(F)(F)F)cc(C(F)(F)F)c1 [fragment 46, 3,5-Bis(trifluoromethyl)benzoic acid NHS ester]
- isoTOP-ABPP ratio, lysine P50583_K89 ([1]; 50 uM_231_sol_in vitro): 1.1
- isoTOP-ABPP ratio, lysine P51580_K32 [2]: 20.0
- isoTOP-ABPP ratio, lysine Q9H3P7_K117 ([3]; 50 uM_231_sol_in vitro): 7.7

SMILES: O=C(Oc1ccc([N+](=O)[O-])cc1[N+](=O)[O-])c1ccc(Oc2ccccc2)cc1 [fragment 39, 2,4-Dinitrophenyl 4-phenoxybenzoate]
- isoTOP-ABPP ratio (R) at liganded lysine P50583_K89 [1]: 2.4
- isoTOP-ABPP ratio (R) at liganded lysine P51580_K32 [2]: 1.0
- isoTOP-ABPP ratio (R) at liganded lysine Q9H3P7_K117 [3]: 0.9

- isoTOP-ABPP reactivity ratio at lysine P50583_K89 [1]: 1.0
- isoTOP-ABPP reactivity ratio at lysine P51580_K32 [2]: 2.9
- isoTOP-ABPP reactivity ratio at lysine Q9H3P7_K117 [3]: 1.7
SMILES: O=C(Oc1c(F)c(F)c(F)c(F)c1F)c1ccc2ccccc2n1 [fragment 25, Pentafluorophenyl quinoline-2-carboxylate]

- isoTOP-ABPP ratio, lysine P50583_K89 ([1]; 100 uM_231_sol_in vitro): 20.0
- reaction with K89 by isoTOP-ABPP ([1]; NUDT2 K89): preferentially reacting
- isoTOP-ABPP ratio, lysine Q9H3P7_K117 ([3]; 100 uM_231_sol_in vitro): 13.9
SMILES: COC(=O)NC(=NC(=O)OCC1c2ccccc2-c2ccccc21)n1cccn1 [fragment 49, N-Methoxycarbonyl-N′-9-fluorenylmethoxycarbonyl-pyrazole-1-carboxamidine]
